This note sets out measurements from ChEMBL document CHEMBL1150932, “Norepinephrine-augmenting lipolytic effectors from Astilbe thunbergii rhizomes” (J Nat Prod, 1998).

Data set [1] can be described thus: Stimulation of ACTH-induced lipolysis in Wistar rat fat cells assessed as free fatty acid release per mL of packed fat cells at 1000 ug after 1 hr relative to ACTH. It counts as functional.
Data set [2] is filed under the species Rattus norvegicus. The data set is described as follows: Induction of lipolysis in Wistar rat fat cells assessed as free fatty acid release per mL of packed fat cells after 1 hr relative to norepinephrine. Format: functional, cell-based.
A short description of data set [3]: Stimulation of ACTH-induced lipolysis in Wistar rat fat cells assessed as free fatty acid release per mL of packed fat cells at 100 ug after 1 hr relative to ACTH. Format: functional.
The nature of data set [4]: Enhancement of norepinephrine-induced lipolysis in cell-free system consisting sonicated lipid droplets assessed as free fatty acid release at 1000 ug in presence of hormone-sensitive lipase relative to untreated control. It counts as physicochemical.
The species entered for data set [5] is Rattus norvegicus. The data set is described as follows: Enhancement of norepinephrine-induced lipolysis in cell-free system consisting endogenous lipid droplets from Wistar rat fat cells assessed as free fatty acid release per mL of packed fat cells after 1 hr in presence of hormone-sensitive lipase. It counts as functional.
A short description of data set [6]: Effect on lipolysis in cell-free system consisting sonicated lipid droplets assessed as free fatty acid release at 1000 ug in presence of hormone-sensitive lipase relative to untreated control. It counts as physicochemical.
Data set [7] is filed under the species Rattus norvegicus. The data set can be described thus: Enhancement of norepinephrine-induced lipolysis in Wistar rat fat cells assessed as free fatty acid release per mL of packed fat cells after 1 hr relative to norepinephrine. Format: functional, cell-based.
The species entered for data set [8] is Rattus norvegicus. The data set is described as follows: Inhibition of insulin-induced lipogenesis from [U-14C]glucose in Wistar rat fat cells after 1 hr by liquid scintillation counting. Format: functional, cell-based.

The source made the active and inactive calls. The rule behind the calls is not given here.

Regarding `C[C@@H]1O[C@@H](O[C@H]2C(=O)c3c(O)cc(O)cc3O[C@@H]2c2ccc(O)c(O)c2)[C@H](O)[C@H](O)[C@H]1O` [ASTILBIN], the Activity in data set [1] was 278.4%; in data set [3], 195.6%; in data set [4], 98.5%; in data set [6], 95.7%. For the same compound, the outcome in the data set filed under Rattus norvegicus [2] was inactive. Besides, the outcome in the data set listed under Rattus norvegicus [5], in the data set listed under Rattus norvegicus [7] and in the data set filed under Rattus norvegicus [8] was Active.
In the case of `COc1c(O)cc2c(c1O)[C@@H]1O[C@H](CO)[C@@H](O)[C@H](O)[C@H]1OC2=O` [BERGENIN], the Activity in data set [1] is recorded as 356.9%; in data set [3], 105.9%; in data set [4], 96.2%; in data set [6], 98.6%. For the same compound, the result in the data set filed under Rattus norvegicus [2] was inactive. Further, the outcome in the data set filed under Rattus norvegicus [5], in the data set filed under Rattus norvegicus [7] and in the data set listed under Rattus norvegicus [8] was Active.
Consider `C[C@@H]1O[C@@H](Oc2coc3cc(O)cc(O)c3c2=O)[C@H](O)[C@H](O)[C@H]1O` [EUCRYPHIN], for which the Activity in data set [1] is on record as 332.8%; in data set [3], 79.4%; in data set [4] it was 100%; in data set [6] it was 98.5%. In addition, the outcome in the data set filed under Rattus norvegicus [2] was inactive. Besides, the result in the data set listed under Rattus norvegicus [5], in the data set listed under Rattus norvegicus [7] and in the data set filed under Rattus norvegicus [8] was Active.
